Laboratory results taken from patent publication US20040126431A1, “Method for preparing microspheres containing a water-soluble substance” (priority 2000, published 2004).

Tests used:
[1] = tested on: PC-3 human prostate tumors (xenografts); assay: Antitumor activity on PC-3 human prostate tumors after i.t. administration; assay type: in vivo, Nude mice
Description: 10^7 PC-3 cells were inoculated on the flank of male Nude mice. The treatment began from a tumor size of 210-266 mm^3 (day 30).
The volume of the test substances administered to the PC-3 tumors was equivalent to the tumor volume (1 μl of treatment per 1 mm^3 of tumor).
(§1) The experiments were stopped when the size of the tumor reached 2 000 mm^3 or when the period after the final treatment exceeded 60 days. Mice carrying progressive tumors were sacrificed. The mice were weighed and examined twice a week, and the weight of the sick animals was compared with the weight of three healthy mice (no tumor, no treatment, of the same batches). The animals were monitored for 98 days.

[2] = tested on: IGROV-1 xenografts (peritoneal ovarian adenocarcinoma of human origin); assay: Antitumor activity on IGROV-1 tumors after i.p. administration; assay type: in vivo, Nude mice; details: for Survival at D98: survivors/5 mice
Text: 10^7 viable IGROV-1 cells were inoculated i.p. into Nude mice. On day 15 after inoculation of tumor cells, the mice were given the substances tested by i.p. administration.
The control group was given only a solution of 5% glucose or empty microspheres. Each group was made up of 5 mice. Isoflurane was used to anesthetize the animals before implantation of the tumor or sacrifice of the animals.
as §1

O=C1[O][Pt]2([NH][C@@H]3CCCC[C@H]3[NH]2)[O]C1=O [Oxaliplatin, oxaliplatin]
T/C % ([1]; i.v., 6 mg/kg oxaliplatin administered three times every four days): 80.41%
T/C % ([1]; single i.t. injection, 30 mg/kg oxaliplatin, 30 mg/kg): 5.24%
T/C % ([1]; single i.v. injection, 15 mg/kg oxaliplatin): 55.47%
T/C % (median survival time treated / untreated control x 100) ([2]; i.p., 6 mg/kg oxaliplatin administered 3 times every four days, treatment from day 15): 85.71%
Survival at D98 ([2]; i.p., 6 mg/kg oxaliplatin administered 3 times every four days): 0/5
antitumor activity (in words) ([2]; i.p., dose of 15 mg base/kg oxaliplatin): did not show any significant antitumor activity
T/C % (median survival time treated / untreated control x 100) ([2]; single i.p. dose, 15 mg/kg oxaliplatin, day 15): 102.38%
Survival at D98 ([2]; single i.p. dose, 15 mg/kg oxaliplatin): 1/5
